From EP4806435A1, “DIHYDROCHROMENE-DERIVATIVE-CONTAINING THERAPEUTIC AGENT FOR CANCER” (Sumitomo Pharma Co., Ltd., priority 2023, dated 2025)
Where two headings read alike, the source gives them in different places.

Assay: Phase 1 clinical trial: plasma pharmacokinetics
Assay type: in vivo, human
Details: human, plasma, oral; for half-life: read-out: Effective T1/2 (converted); for AUC: tau = 24 hours
Description: Summary statistics based on preliminary data were obtained for the pharmacokinetics of Compound 1 in patients receiving once-daily doses ranging from 20 mg to 240 mg (Table 5). The mean plasma concentration-time curves of Compound 1 in the once-daily dose groups ranging from 20 mg to 240 mg are shown in Figure 11. In this study, one cycle consists of 28 days, and Cycle 1 Day 1 refers to Day 1 of the first cycle. […] Accumulation was observed after repeated administration. […] Based on these accumulation ratios, the half-life of Compound 1 was estimated to be approximately 4 days. Based on the currently available data, plasma concentrations are considered to have reached steady state by Day 15.
Summary statistics based on preliminary data were obtained for the pharmacokinetics of Compound 1 in patients in the 20 mg QD, 40 mg QD, 80 mg QD, 120 mg QD, 180 mg QD, 240 mg QD, 360 mg QD, and 480 mg daily (240 mg BID) dose groups (Table 6). The mean plasma concentration-time curves of Compound 1 in the 20 mg QD to 480 mg daily (240 mg BID) dose groups are shown in Figure 12 (in Figure 12, Compound 1 is denoted as "DSP-0390"). In this study, one cycle consists of 28 days, and Cycle 1 Day 1 refers to Day 1 of the first cycle. […] The median Tmax ranged from 2 to 8 hours. Accumulation was observed after repeated administration, and assuming linearity based on the observed accumulation ratios, the estimated elimination half-life was considered to be on the order of several days (approximately 1 to 6 days) (data cut-off: March 2024).

## CC1(C)Oc2cc(Cl)ccc2[C@@H]2OCC3(CCN(CCn4ccnc4)CC3)C[C@H]21 [Compound 1, (4'aR,10'bR)-8'-chloro-1-[2-(1H-imidazol-1-yl)ethyl]-5',5'-dimethyl-4'a,10'b-dihydro-2'H,4'H,5'H-spiro[piperidine-4,3'-pyrano[3,2-c][1]benzopyran] diphosphate]
80 mg, Cycle 2 Day 1, 80 mg, QD, cut-off April 2023, read-out: Cmax (median)
  Cmax: 61 ng/mL
80 mg, Cycle 2 Day 1, 80 mg, QD, cut-off April 2023, read-out: Tmax (mean)
  Tmax: 8 h
80 mg, Cycle 2 Day 1, 80 mg, QD, cut-off April 2023, read-out: Tmax (median)
  Tmax: 8 h
120 mg, 120 mg QD, cut-off March 2024
  half-life: 67.2 h
120 mg, Cycle 1, Day 1, 120 mg QD, cut-off March 2024, read-out: Cmax
  Cmax: 44.2 ng/mL
120 mg, Cycle 1, Day 1, 120 mg QD, cut-off March 2024, read-out: Tmax [a] median value
  Tmax: 4 h
120 mg, Cycle 1, Day 1, 120 mg QD, cut-off March 2024, read-out: AUCtau [b]
  AUC: 577 ng·h/mL
120 mg, Cycle 1 Day 1, 120 mg, QD, cut-off April 2023, read-out: AUC0-24 (geometric mean)
  AUC(0-t): 544 ng·h/mL
120 mg, Cycle 1 Day 1, 120 mg, QD, cut-off April 2023, read-out: AUC0-24 (mean)
  AUC(0-t): 583 ng·h/mL
120 mg, Cycle 1 Day 1, 120 mg, QD, cut-off April 2023, read-out: AUC0-24 (median)
  AUC(0-t): 605 ng·h/mL
120 mg, Cycle 1 Day 1, 120 mg, QD, cut-off April 2023, read-out: Cmax (geometric mean)
  Cmax: 40 ng/mL
120 mg, Cycle 1 Day 1, 120 mg, QD, cut-off April 2023, read-out: Cmax (mean)
  Cmax: 44 ng/mL
120 mg, Cycle 1 Day 1, 120 mg, QD, cut-off April 2023, read-out: Cmax (median)
  Cmax: 45 ng/mL
120 mg, Cycle 1 Day 1, 120 mg, QD, cut-off April 2023, read-out: Tmax (mean)
  Tmax: 4 h
120 mg, Cycle 1 Day 1, 120 mg, QD, cut-off April 2023, read-out: Tmax (median)
  Tmax: 4 h
120 mg, Cycle 2, Day 1, 120 mg QD, cut-off March 2024, read-out: Cmax,ss
  Cmax: 156 ng/mL
120 mg, Cycle 2, Day 1, 120 mg QD, cut-off March 2024, read-out: Tmax,ss [a] median value
  Tmax: 5 h
120 mg, Cycle 2, Day 1, 120 mg QD, cut-off March 2024, read-out: AUCtau,ss [b]
  AUC: 2610 ng·h/mL
120 mg, Cycle 2 Day 1, 120 mg, QD, cut-off April 2023, read-out: AUC0-24 (geometric mean)
  AUC(0-t): 2420 ng·h/mL
120 mg, Cycle 2 Day 1, 120 mg, QD, cut-off April 2023, read-out: AUC0-24 (mean)
  AUC(0-t): 2630 ng·h/mL
120 mg, Cycle 2 Day 1, 120 mg, QD, cut-off April 2023, read-out: AUC0-24 (median)
  AUC(0-t): 2330 ng·h/mL
120 mg, Cycle 2 Day 1, 120 mg, QD, cut-off April 2023, read-out: Cmax (geometric mean)
  Cmax: 140 ng/mL
120 mg, Cycle 2 Day 1, 120 mg, QD, cut-off April 2023, read-out: Cmax (mean)
  Cmax: 156 ng/mL
120 mg, Cycle 2 Day 1, 120 mg, QD, cut-off April 2023, read-out: Cmax (median)
  Cmax: 138 ng/mL
120 mg, Cycle 2 Day 1, 120 mg, QD, cut-off April 2023, read-out: Tmax (mean)
  Tmax: 6 h
120 mg, Cycle 2 Day 1, 120 mg, QD, cut-off April 2023, read-out: Tmax (median)
  Tmax: 5 h
180 mg, 180 mg QD, cut-off March 2024
  half-life: 50.4 h
180 mg, Cycle 1, Day 1, 180 mg QD, cut-off March 2024, read-out: Cmax
  Cmax: 114 ng/mL
180 mg, Cycle 1, Day 1, 180 mg QD, cut-off March 2024, read-out: Tmax [a] median value
  Tmax: 6 h
180 mg, Cycle 1, Day 1, 180 mg QD, cut-off March 2024, read-out: AUCtau [b]
  AUC: 1370 ng·h/mL
180 mg, Cycle 1 Day 1, 180 mg, QD, cut-off April 2023, read-out: AUC0-24 (geometric mean)
  AUC(0-t): 1060 ng·h/mL
180 mg, Cycle 1 Day 1, 180 mg, QD, cut-off April 2023, read-out: AUC0-24 (mean)
  AUC(0-t): 1420 ng·h/mL
180 mg, Cycle 1 Day 1, 180 mg, QD, cut-off April 2023, read-out: AUC0-24 (median)
  AUC(0-t): 1840 ng·h/mL
180 mg, Cycle 1 Day 1, 180 mg, QD, cut-off April 2023, read-out: Cmax (geometric mean)
  Cmax: 73 ng/mL
180 mg, Cycle 1 Day 1, 180 mg, QD, cut-off April 2023, read-out: Cmax (mean)
  Cmax: 101 ng/mL
180 mg, Cycle 1 Day 1, 180 mg, QD, cut-off April 2023, read-out: Cmax (median)
  Cmax: 140 ng/mL
180 mg, Cycle 1 Day 1, 180 mg, QD, cut-off April 2023, read-out: Tmax (mean)
  Tmax: 11 h
180 mg, Cycle 1 Day 1, 180 mg, QD, cut-off April 2023, read-out: Tmax (median)
  Tmax: 6 h
180 mg, Cycle 2, Day 1, 180 mg QD, cut-off March 2024, read-out: Cmax,ss
  Cmax: 215 ng/mL
180 mg, Cycle 2, Day 1, 180 mg QD, cut-off March 2024, read-out: Tmax,ss [a] median value
  Tmax: 6 h
180 mg, Cycle 2, Day 1, 180 mg QD, n=3, cut-off March 2024, read-out: AUCtau,ss [b]
  AUC: 4860 ng·h/mL
180 mg, Cycle 2 Day 1, 180 mg, QD, N=1, cut-off April 2023, read-out: AUC0-24 (geometric mean)
  AUC(0-t): 7260 ng·h/mL
180 mg, Cycle 2 Day 1, 180 mg, QD, N=1, cut-off April 2023, read-out: AUC0-24 (mean)
  AUC(0-t): 7260 ng·h/mL
180 mg, Cycle 2 Day 1, 180 mg, QD, N=1, cut-off April 2023, read-out: AUC0-24 (median)
  AUC(0-t): 7260 ng·h/mL
180 mg, Cycle 2 Day 1, 180 mg, QD, cut-off April 2023, read-out: Cmax (geometric mean)
  Cmax: 281 ng/mL
180 mg, Cycle 2 Day 1, 180 mg, QD, cut-off April 2023, read-out: Cmax (mean)
  Cmax: 287 ng/mL
180 mg, Cycle 2 Day 1, 180 mg, QD, cut-off April 2023, read-out: Cmax (median)
  Cmax: 287 ng/mL
180 mg, Cycle 2 Day 1, 180 mg, QD, cut-off April 2023, read-out: Tmax (mean)
  Tmax: 7 h
